Reference: patent US12653814B2, “Benzimidazolone-based cinnamamide derivative as TRPV1 antagonist and pharmaceutical composition for treatment or prevention of pain containing same as active ingredient” (JMACKEM CO., LTD, priority 2020, dated 2026)

Columns and labels:
[1] = even in the absence of partial agonism; cited from earlier work
[2] = during clinical trials; cited from earlier work
human TRPV1 (hTRPV1) [3] = target: T1, human TRPV1 (hTRPV1) (Homo sapiens, UniProt Q8NER1); assay: Ca2+ influx assay, antagonism against capsaicin in hTRPV1-HEK recombinant cells; type: cell-based; details: capsaicin 10 nM as activator, Fluo4-NW fluorescence, read-out: hTRPV1 IC50 [cap]
T1 construct: host or cells: HEK (PrecisION hTRPV1-HEK recombinant cell line)

[4] = Evaluation of bioavailability (BA), rat PK after intravenous and oral administration; type: in vivo, SD rats; details: male, SD, plasma, 10 mg/kg, read-out: Bioavailability F (%)
Method: SD rats (Coatec, Hana Trading Co., Ltd., 7-8 weeks old, male, n=4, 250-300 g) were used for the experiment. The rats were bred in a small animal breeding room (experimental animal center) set at a temperature of 22±2° C., a relative humidity of 50±5%, an illumination time of 12 hours (08:00˜20:00), and an illumination intensity of 150 to 300 lux. Feed was fed freely during the entire test period, and RO water was provided freely. Before oral administration of the test substances (example compounds and comparative example compounds of the present invention), the rats were fasted for 16 hours.
The dosage of the example compounds and comparative example compounds of the present invention was 5 mg/kg when administered intravenously and 10 mg/kg when administered orally. For intravenous administration, a clear solution in which 10% DMSO, 10% Cremophor EL, and 80% PEG400 were dissolved was administered. For oral administration, a solution or suspension in which 10% DMSO and 10% Cremophor EL were dissolved in 80% DDW was administered.
After the intravenous or oral administration, blood was collected at 5 minutes, 15 minutes, 30 minutes, 1 hour, 2 hours, 4 hours, 6 hours and 8 hours, and the concentrations of the test substances (example compounds and comparative example compounds of the present invention) in plasma were measured by LC-MS/MS.
After adding 80 μl of acetonitrile (including internal standard) to 20 μl of plasma, centrifugation was performed for 5 minutes at 15,000 rpm at 4° C. with vortexing. The supernatant obtained after the centrifugation was analyzed by LC-MS/MS. For HPLC, Nexera XR system (Shimadzu, Japan) was used, and for mass spectrometer, TSQ vantage triple quadruple (Thermo, USA) was used.
The PK parameters were calculated with a non-compartmental analysis model using Phoenix WinNonlin 6.4 version (Pharsight, USA) program.
AUC was calculated using the linear trapezoidal rule in the rising plasma-level phase and the logarithmic trapezoidal rule in the declining phase.

human TRPV1 (hTRPV1) [5] = target: T1, human TRPV1 (hTRPV1); assay: Evaluation of human pH inhibitory activity in hTRPV1-HEK recombinant cells; type: cell-based; details: inhibition of activation at final pH 6.0, test substance 3 μM
Method: Evaluation of Human pH Inhibitory Activity
PrecisION™ hTRPV1-HEK recombinant cells (CYL3063) were purchased from Millipore and used. After culturing the above cells under the conditions of 37° C. and 5% CO2, the cells were inoculated in a 96-well plate at the density of 5×10^4 cells/well, followed by culture for 16 hours. Then, the medium was removed and 100 uL of a staining solution was put into each well, followed by culture for 30 minutes under the conditions of 37° C. and 5% CO2. After 30 minutes, all of the existing staining solution was removed and replaced with 100 uL of HBSS. Thereafter, the cells were acclimatized to room temperature for 15 minutes, and the test substances (example compounds and comparative example compounds of the present invention) were added to each well, followed by culture at room temperature for 15 minutes. Then, the final pH was adjusted to 6.0 using MES, and fluorescence was measured (ex485/em535). In the pH assay, the efficacy of the drug was evaluated using BCTC as a TRPV1 antagonist.

T1 sequence (Q8NER1 whole entry): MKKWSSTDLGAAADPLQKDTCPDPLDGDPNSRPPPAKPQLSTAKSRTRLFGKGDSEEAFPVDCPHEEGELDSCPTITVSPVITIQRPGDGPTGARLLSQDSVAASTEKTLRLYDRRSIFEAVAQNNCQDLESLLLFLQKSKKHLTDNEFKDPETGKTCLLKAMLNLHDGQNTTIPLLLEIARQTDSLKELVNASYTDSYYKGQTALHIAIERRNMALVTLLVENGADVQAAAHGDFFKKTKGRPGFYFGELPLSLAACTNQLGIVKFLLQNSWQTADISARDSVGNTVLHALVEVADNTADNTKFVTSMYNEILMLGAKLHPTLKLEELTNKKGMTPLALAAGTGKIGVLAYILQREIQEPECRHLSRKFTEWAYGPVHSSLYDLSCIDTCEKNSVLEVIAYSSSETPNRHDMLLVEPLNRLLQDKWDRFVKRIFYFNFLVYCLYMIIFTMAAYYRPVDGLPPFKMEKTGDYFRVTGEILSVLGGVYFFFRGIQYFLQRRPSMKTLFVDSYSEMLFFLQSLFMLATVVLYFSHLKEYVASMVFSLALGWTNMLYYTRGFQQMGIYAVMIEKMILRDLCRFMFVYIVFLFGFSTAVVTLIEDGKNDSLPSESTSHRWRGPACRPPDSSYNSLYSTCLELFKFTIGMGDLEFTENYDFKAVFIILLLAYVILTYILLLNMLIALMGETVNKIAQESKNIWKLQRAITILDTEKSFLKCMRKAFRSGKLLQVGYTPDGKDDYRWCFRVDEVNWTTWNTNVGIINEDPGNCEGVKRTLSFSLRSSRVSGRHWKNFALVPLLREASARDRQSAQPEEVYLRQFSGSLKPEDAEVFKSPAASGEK

| IC50 (human TRPV1 (hTRPV1) [3]) [nM] | bioavailability [4] [%] | hTRPV1 pH (%, 3 μM) (human TRPV1 (hTRPV1) [5]) [%] | SMILES | effect on body temperature [1] | subject's body temperature rose to [2] [°C] |
| --- | --- | --- | --- | --- | --- |
| 18.4 | 2.3 |  | O=C(NCc1ccc(C(F)(F)F)nc1N1CCCC1)Nc1cccc2[nH]c(=O)[nH]c12 [Comparative Example 1, 1-(2-oxo-1,3-dihydrobenzimidazol-4-yl)-3-[[2-pyrrolidin-1-yl-6-(trifluoromethyl)-3-pyridyl]methyl]urea, reference compound] |  |  |
| 23.4 | 1 |  | CC(C)Oc1nc(C(F)(F)F)ccc1CNC(=O)Nc1cccc2[nH]c(=O)[nH]c12 [Comparative Example 2, 1-[[2-isopropoxy-6-(trifluoromethyl)-3-pyridyl]methyl]-3-(2-oxo-1,3-dihydrobenzimidazol-4-yl)urea, reference compound] |  |  |
| 11.3 | 12.5 | 49.86 | O=C(/C=C/c1ccc(C(F)(F)F)nc1N1CCCCC1)Nc1cccc2[nH]c(=O)[nH]c12 [Example 4, (E)-N-(2-oxo-2,3-dihydro-1H-benzo[d]imidazol-4-yl)-3-(2-(piperidin-1-yl)-6-(trifluoromethyl)pyridin-3-yl)acrylamide] |  |  |
| 13.7 | 35.6 | 30.67 | O=C(/C=C/c1ccc(C(F)(F)F)nc1OCC1CC1)Nc1cccc2[nH]c(=O)[nH]c12 [Example 13, (E)-3-(2-(cyclopropylmethoxy)-6-(trifluoromethyl)pyridin-3-yl)-N-(2-oxo-2,3-dihydro-1H-benzo[d]imidazol-4-yl)acrylamide] |  |  |
| 19.9 |  | 21.37 | O=C(/C=C/c1cc(C(F)(F)F)nn1-c1ccc(F)c(Cl)c1)Nc1cccc2[nH]c(=O)[nH]c12 [Example 49, (E)-3-(1-(3-chloro-4-fluorophenyl)-3-(trifluoromethyl)-1H-pyrazol-5-yl)-N-(2-oxo-2,3-dihydro-1H-benzo[d]imidazol-4-yl)acrylamide] |  |  |
| 55.7 |  | 63.44 | O=C(/C=C/c1sc(C(F)(F)F)nc1-c1cccc(Cl)c1)Nc1cccc2[nH]c(=O)[nH]c12 [Example 54, (E)-3-(4-(3-chlorophenyl)-2-(trifluoromethyl)thiazol-5-yl)-N-(2-oxo-2,3-dihydro-1H-benzo[d]imidazol-4-yl)acrylamide] |  |  |
| 26 |  | 68.23 | O=C(/C=C/c1sc(C2CC2)nc1-c1cccc(Cl)c1)Nc1cccc2[nH]c(=O)[nH]c12 [Example 56, (E)-3-(4-(3-chlorophenyl)-2-cyclopropylthiazol-5-yl)-N-(2-oxo-2,3-dihydro-1H-benzo[d]imidazol-4-yl)acrylamide] |  |  |

Second part, the compound before the results:

| SMILES | IC50 (human TRPV1 (hTRPV1) [3]) [nM] | bioavailability [4] [%] | hTRPV1 pH (%, 3 μM) (human TRPV1 (hTRPV1) [5]) [%] | effect on body temperature [1] | subject's body temperature rose to [2] [°C] |
| --- | --- | --- | --- | --- | --- |
| FC(F)(F)c1ccc(-c2cc(Nc3ccc4ncsc4c3)ncn2)c(NCC2CCCCC2)c1 [AMG7905] |  |  |  | cause hypothermia |  |
| O=C(/C=C/c1ccc(C(F)(F)F)cc1N1CCCCC1)Nc1cccc2c1C[C@H](O)C2 [AMG8562] |  |  |  | cause hypothermia |  |
| CC(=O)Nc1nc2c(Oc3cc(-c4ccc(C(F)(F)F)cc4)ncn3)cccc2s1 [AMG 517] |  |  |  |  | 40.2 |
| O=C(NCc1ccc(C(F)(F)F)nc1N1CCCCC1)Nc1cccc2[nH]c(=O)[nH]c12 [Comparative Example 3, 1-(2-oxo-1,3-dihydrobenzimidazol-4-yl)-3-[[2-(1-piperidyl)-6-(trifluoromethyl)-3-pyridyl]methyl]urea, reference compound] | 13.5 | 3 |  |  |  |
| O=C(/C=C/c1ccc(C(F)(F)F)nc1N1CCCC1)Nc1cccc2[nH]c(=O)[nH]c12 [Example 3, (E)-N-(2-oxo-2,3-dihydro-1H-benzo[d]imidazol-4-yl)-3-(2-(pyrrolidin-1-yl)-6-(trifluoromethyl)pyridin-3-yl)acrylamide] | 15.7 | 13.2 | 52.56 |  |  |
| CC(C)COc1nc(C(F)(F)F)ccc1/C=C/C(=O)Nc1cccc2[nH]c(=O)[nH]c12 [Example 10, (E)-3-(2-isobutoxy-6-(trifluoromethyl)pyridin-3-yl)-N-(2-oxo-2,3-dihydro-1H-benzo[d]imidazol-4-yl)acrylamide] | 13 | 25.9 | 53.26 |  |  |
| CC(C)c1cccc(-n2nc(C(F)(F)F)cc2/C=C/C(=O)Nc2cccc3[nH]c(=O)[nH]c23)c1 [Example 50, (E)-3-(1-(3-isopropylphenyl)-3-(trifluoromethyl)-1H-pyrazol-5-yl)-N-(2-oxo-2,3-dihydro-1H-benzo[d]imidazol-4-yl)acrylamide] | 41.3 |  | 34.22 |  |  |
| CC(C)(C)c1cc(/C=C/C(=O)Nc2cccc3[nH]c(=O)[nH]c23)n(-c2cccc(Cl)c2)n1 [Example 53, (E)-3-(3-(tert-butyl)-1-(3-chlorophenyl)-1H-pyrazol-5-yl)-N-(2-oxo-2,3-dihydro-1H-benzo[d]imidazol-4-yl)acrylamide] | 79.8 |  | 78.21 |  |  |
| CC1(c2nc(-c3cccc(Cl)c3)c(/C=C/C(=O)Nc3cccc4[nH]c(=O)[nH]c34)s2)CC1 [Example 57, (E)-3-(4-(3-chlorophenyl)-2-(1-methylcyclopropyl)thiazol-5-yl)-N-(2-oxo-2,3-dihydro-1H-benzo[d]imidazol-4-yl)acrylamide] | 39.8 |  | 61.78 |  |  |
| CC(C)COc1nc(C(F)(F)F)ccc1CCC(=O)Nc1cccc2[nH]c(=O)[nH]c12 [Example 59, 3-(2-isobutoxy-6-(trifluoromethyl)pyridin-3-yl)-N-(2-oxo-2,3-dihydro-1H-benzo[d]imidazol-4-yl)propaneamide] | 40.7 |  | 59.32 |  |  |
| O=C(CCc1ccc(C(F)(F)F)nc1OCC1CC1)Nc1cccc2[nH]c(=O)[nH]c12 [Example 60, 3-(2-(cyclopropylmethoxy)-6-(trifluoromethyl)pyridin-3-yl)-N-(2-oxo-2,3-dihydro-1H-benzo[d]imidazol-4-yl)propaneamide] | 23.7 |  | 67.19 |  |  |
| O=C(Nc1cccc2[nH]c(=O)[nH]c12)C1CC1c1cc(C(F)(F)F)nn1-c1cccc(Cl)c1 (stereo not drawn) [Example 63, 2-(1-(3-chlorophenyl)-3-(trifluoromethyl)-1H-pyrazol-5-yl)-N-(2-oxo-2,3-dihydro-1H-benzo[d]imidazol-4-yl)cyclopropane-1-carboxamide] | 10.3 |  | 0.53 |  |  |
